Literature values, collected in article PMC9516332 (Frontiers in Oncology, 2022).
Where two headings read alike, the source gives them in different places.

Columns and labels:
Details in all cases: cited from earlier work
[1] = molecular target: panel of 255 wild-type kinases (Homo sapiens, UniProt Q00526)
[2] = molecular target: T1, panel of 255 wild-type kinases (Homo sapiens, UniProt O14965)
T1 sequence (O14965 1-403): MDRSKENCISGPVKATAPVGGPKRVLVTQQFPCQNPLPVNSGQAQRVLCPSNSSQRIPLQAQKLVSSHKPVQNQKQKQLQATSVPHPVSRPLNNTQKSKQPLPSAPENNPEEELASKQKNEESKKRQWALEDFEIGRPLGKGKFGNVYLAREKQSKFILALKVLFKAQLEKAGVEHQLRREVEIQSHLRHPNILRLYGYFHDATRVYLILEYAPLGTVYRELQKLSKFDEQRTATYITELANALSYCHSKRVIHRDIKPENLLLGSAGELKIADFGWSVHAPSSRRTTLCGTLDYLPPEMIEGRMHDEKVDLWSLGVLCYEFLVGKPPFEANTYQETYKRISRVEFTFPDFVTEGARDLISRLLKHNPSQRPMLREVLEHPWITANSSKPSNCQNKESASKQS

[3] = molecular target: panel of 255 wild-type kinases (Homo sapiens, UniProt P22607)
[4] = molecular target: panel of 255 wild-type kinases (Homo sapiens, UniProt Q13464)
[5] = molecular target: panel of 255 wild-type kinases (Homo sapiens, UniProt P11309)
[6] = molecular target: panel of 255 wild-type kinases (Homo sapiens, UniProt Q9Y6E0)
[7] = molecular target: panel of 255 wild-type kinases (Homo sapiens, UniProt P50613)
[8] = molecular target: T2, panel of 255 wild-type kinases (Homo sapiens, UniProt Q92630)
T2 sequence (Q92630 1-601): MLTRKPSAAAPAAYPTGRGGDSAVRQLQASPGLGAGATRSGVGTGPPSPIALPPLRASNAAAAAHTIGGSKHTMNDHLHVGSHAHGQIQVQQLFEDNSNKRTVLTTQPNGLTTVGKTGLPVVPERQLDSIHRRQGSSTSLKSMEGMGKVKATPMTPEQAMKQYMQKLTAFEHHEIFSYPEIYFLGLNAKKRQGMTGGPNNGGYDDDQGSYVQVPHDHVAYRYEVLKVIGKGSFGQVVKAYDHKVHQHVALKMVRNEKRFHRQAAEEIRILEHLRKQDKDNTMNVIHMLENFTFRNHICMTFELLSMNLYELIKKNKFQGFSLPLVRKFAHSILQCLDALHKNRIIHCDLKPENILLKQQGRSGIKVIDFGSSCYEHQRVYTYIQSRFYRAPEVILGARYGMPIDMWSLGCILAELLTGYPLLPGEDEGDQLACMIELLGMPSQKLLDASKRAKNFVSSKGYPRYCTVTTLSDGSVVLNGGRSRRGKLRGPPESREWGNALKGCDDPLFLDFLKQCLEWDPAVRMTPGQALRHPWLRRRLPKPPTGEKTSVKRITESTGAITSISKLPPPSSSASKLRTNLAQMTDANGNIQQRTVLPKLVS

[9] = molecular target: panel of 255 wild-type kinases (Homo sapiens, UniProt Q8N4C8)
[10] = molecular target: T3, panel of 255 wild-type kinases (Homo sapiens, UniProt Q9BZL6)
T3 sequence (Q9BZL6 1-878): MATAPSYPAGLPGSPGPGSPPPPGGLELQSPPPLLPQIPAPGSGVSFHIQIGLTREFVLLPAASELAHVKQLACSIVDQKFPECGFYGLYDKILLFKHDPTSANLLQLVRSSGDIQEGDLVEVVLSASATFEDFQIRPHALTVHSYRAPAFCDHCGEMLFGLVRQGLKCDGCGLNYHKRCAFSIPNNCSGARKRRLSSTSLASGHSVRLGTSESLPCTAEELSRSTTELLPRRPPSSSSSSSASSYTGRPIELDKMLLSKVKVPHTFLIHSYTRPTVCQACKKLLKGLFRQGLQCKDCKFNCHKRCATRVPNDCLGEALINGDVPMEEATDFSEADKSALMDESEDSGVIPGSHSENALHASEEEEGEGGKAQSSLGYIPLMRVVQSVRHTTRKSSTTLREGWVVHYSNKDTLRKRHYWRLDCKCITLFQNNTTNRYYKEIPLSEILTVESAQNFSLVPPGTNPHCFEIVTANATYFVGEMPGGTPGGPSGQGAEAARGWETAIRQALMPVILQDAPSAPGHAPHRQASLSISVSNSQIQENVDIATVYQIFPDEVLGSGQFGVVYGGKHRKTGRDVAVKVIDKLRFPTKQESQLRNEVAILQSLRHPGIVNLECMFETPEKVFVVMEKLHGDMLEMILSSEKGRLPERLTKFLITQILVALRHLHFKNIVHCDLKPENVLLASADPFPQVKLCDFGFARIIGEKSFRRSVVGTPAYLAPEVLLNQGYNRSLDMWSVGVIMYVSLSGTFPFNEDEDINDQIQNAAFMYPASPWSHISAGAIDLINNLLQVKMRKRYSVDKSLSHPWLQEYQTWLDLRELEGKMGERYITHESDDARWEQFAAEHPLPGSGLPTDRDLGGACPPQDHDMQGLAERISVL

[11] = CDK3/CycE1 kinase assay, 1 µmol/L single concentration, ref DOI: 10.1158/1535-7163.MCT-18-0877
[12] = AurA kinase assay, 1 µmol/L single concentration, ref DOI: 10.1158/1535-7163.MCT-18-0877
[13] = AurA/TPX2 kinase assay, 1 µmol/L single concentration, ref DOI: 10.1158/1535-7163.MCT-18-0877
[14] = kinase FGFR3, 1 µmol/L single concentration, ref DOI: 10.1158/1535-7163.MCT-18-0877
[15] = kinase ROCK1, 1 µmol/L single concentration, ref DOI: 10.1158/1535-7163.MCT-18-0877
[16] = kinase PIM1, 1 µmol/L single concentration, ref DOI: 10.1158/1535-7163.MCT-18-0877
[17] = MST3, 1 µmol/L single concentration, ref DOI: 10.1158/1535-7163.MCT-18-0877
[18] = CDK7/CycH/MAT1 kinase assay, 1 µmol/L single concentration, ref DOI: 10.1158/1535-7163.MCT-18-0877
[19] = kinase DYRK2, 1 µmol/L single concentration, ref DOI: 10.1158/1535-7163.MCT-18-0877
[20] = MINK, 1 µmol/L single concentration, ref DOI: 10.1158/1535-7163.MCT-18-0877
[21] = kinase PKD2, 1 µmol/L single concentration, ref DOI: 10.1158/1535-7163.MCT-18-0877
[22] = kinase FGFR3, 1 µmol/L single concentration, ref DOI: 10.1371/journal.pone.0092146
[23] = MST3, 1 µmol/L single concentration, ref DOI: 10.1371/journal.pone.0092146
[24] = kinase DYRK2, 1 µmol/L single concentration, ref DOI: 10.1371/journal.pone.0092146
[25] = MINK, 1 µmol/L single concentration, ref DOI: 10.1371/journal.pone.0092146

Structure (SMILES) | %-inhibition CDK3/CycE1 [1, 11] | %-inhibition AurA [2, 12] | %-inhibition AurA/TPX2 [2, 13] | %-inhibition at 1 µmol/L, FGFR3 [3, 14] | %-inhibition at 1 µmol/L, ROCK1 [4, 15] | %-inhibition at 1 µmol/L, PIM1 [5, 16] | %-inhibition, MST3 [6, 17] | %-inhibition CDK7/CycH/MAT1 [7, 18] | %-inhibition at 1 µmol/L, DYRK2 [8, 19] | %-inhibition, MINK [9, 20] | %-inhibition at 1 µmol/L, PKD2 [10, 21] | other results
CC#CC(=O)N1CCC[C@H]1c1nc(-c2ccc(C(=O)Nc3ccccn3)cc2)c2c(N)nccn12 [acalabrutinib] | -6% | 2.34% | -4.71% | -1.31% | -8% | -4.28% | -2.52% | 5% | -16% | -1.13% | -10% | –
CCc1cc2c(cc1N1CCC(N3CCOCC3)CC1)C(C)(C)c1[nH]c3cc(C#N)ccc3c1C2=O [alectinib] | -2.74% | 5% | -3% | 8% | -2% | 15% | -2.37% | -12% | 6% | – | -1.05% | –
COc1cc(N2CCC(N3CCN(C)CC3)CC2)ccc1Nc1ncc(Cl)c(Nc2ccccc2P(C)(C)=O)n1 [brigatinib] | – | – | – | – | – | – | – | – | – | – | – | %-inhibition CDK3/CycE1 [1]: 0.848%; %-inhibition AurA [2]: 79%; %-inhibition AurA/TPX2 [2]: 74%; %-inhibition at 1 µmol/L, FGFR3 [3]: 93%; %-inhibition at 1 µmol/L, ROCK1 [4]: 25%; %-inhibition at 1 µmol/L, PIM1 [5]: 3%; %-inhibition, MST3 [6]: 13%; %-inhibition CDK7/CycH/MAT1 [7]: 55%; %-inhibition at 1 µmol/L, DYRK2 [8]: 29%; %-inhibition, MINK [9]: 6%; %-inhibition at 1 µmol/L, PKD2 [10]: 86%
Cc1cc(Nc2ncc(Cl)c(Nc3ccccc3S(=O)(=O)C(C)C)n2)c(OC(C)C)cc1C1CCNCC1 [ceritinib] | -3.17% | 12% | 2.84% | 21% | 31% | -8% | 31% | 45% | 6.41% | 1.46% | 25% | –
C[C@@H](Oc1cc(-c2cnn(C3CCNCC3)c2)cnc1N)c1c(Cl)ccc(F)c1Cl [crizotinib] | – | – | – | – | – | – | – | – | – | – | – | %-inhibition CDK3/CycE1 ([1]; CDK3/CycE1 kinase assay, 1 µmol/L single concentration, ref DOI: 10.1371/journal.pone.0092146): -5.68%; %-inhibition at 1 µmol/L, FGFR3 [3, 22]: 43%; %-inhibition at 1 µmol/L, ROCK1 ([4]; kinase ROCK1, 1 µmol/L single concentration, ref DOI: 10.1371/journal.pone.0092146): 3.39%; %-inhibition at 1 µmol/L, PIM1 ([5]; kinase PIM1, 1 µmol/L single concentration, ref DOI: 10.1371/journal.pone.0092146): -7%; %-inhibition, MST3 [6, 23]: 11%; %-inhibition CDK7/CycH/MAT1 ([7]; CDK7/CycH/MAT1 kinase assay, 1 µmol/L single concentration, ref DOI: 10.1371/journal.pone.0092146): 58%; %-inhibition at 1 µmol/L, DYRK2 [8, 24]: 10%; %-inhibition, MINK [9, 25]: 0%
CC(C)(C)c1nc(-c2cccc(NS(=O)(=O)c3c(F)cccc3F)c2F)c(-c2ccnc(N)n2)s1 [dabrafenib] | – | – | – | – | – | – | – | – | – | – | – | %-inhibition at 1 µmol/L, FGFR3 [3, 22]: 4.27%; %-inhibition, MST3 [6, 23]: 0.532%; %-inhibition at 1 µmol/L, DYRK2 [8, 24]: 6%; %-inhibition, MINK [9, 25]: -0.772%; %-inhibition at 1 µmol/L, PKD2 ([10]; kinase PKD2, 1 µmol/L single concentration, ref DOI: 10.1371/journal.pone.0092146): 82%
C=CC(=O)N1CCC[C@@H](n2nc(-c3ccc(Oc4ccccc4)cc3)c3c(N)ncnc32)C1 [ibrutinib] | 0.486% | 30% | -2.33% | 82% | -5.42% | – | 8% | 5% | -1.83% | -6.41% | -3.2% | –
CO[C@@H]1[C@H](N(C)C(=O)c2ccccc2)C[C@H]2O[C@]1(C)n1c3ccccc3c3c4c(c5c6ccccc6n2c5c31)C(=O)NC4 [midostaurin] | 11% | – | – | – | 13% | 52% | – | 10% | – | 88% | – | %-inhibition AurA [2]: 100%; %-inhibition AurA/TPX2 [2]: 91%
